# Source: patent US6329339A, “Pharmaceutical antiviral composition comprising glycyrrhizic acid and at least one protein endowed with antiviral activity” (priority 1997, dated 2001)
# Experiments:
# [1] = test system: HSV1; assay: Inhibition of HSV1 viral plaques on VERO cells; assay type: cell-based, Herpes Simplex Virus type 1; settings: for Inhibition (%) of viral plaques with various lysozymes: percentage of the control ± standard deviation
# [2] = test system: HSV1; settings: 8 mM, cited from earlier work
# [3] = test system: infected cells, synthesis of proteins; settings: even at doses of 4 mM; cited from earlier work
# [4] = test system: infected cells, synthesis of glyco-proteins; settings: cited from earlier work
# [5] = test system: virus (viral replication); settings: cited from earlier work
# [6] = test system: normal cells, synthesis of proteins; settings: even at doses of 4 mM; cited from earlier work
# [7] = test system: normal cells, synthesis of glyco-proteins; settings: cited from earlier work
# [8] = in vivo, cited from earlier work
# [9] = test system: Herpes Simplex Virus type 1; settings: cited from earlier work
# [10] = test system: HSV1; settings: Arch. Virol. 1995; cited from earlier work
# [11] = test system: human immunodeficiency virus; settings: in vitro; cited from earlier work
# [12] = test system: human cytomegalovirus; settings: in vitro; cited from earlier work
# [13] = Human alphaherpesvirus 1, Vero, read-out: Glycyrrhizic acid - Inhibition (%) of viral plaques
compound,measurement,setting,value
chicken lysozyme: chicken lysozyme supplied by SIGMA,Inhibition (%) of viral plaques with various lysozymes,[1]; 0.5 mg/ml,20 ± 4%
same,Inhibition (%) of viral plaques with various lysozymes,[1]; 1 mg/ml,49 ± 5%
same,Inhibition (%) of viral plaques with various lysozymes,[1]; 2 mg/ml,60 ± 6%
same,Inhibition (%) of viral plaques with various lysozymes,[1]; 4 mg/ml,71 ± 6%
same,Inhibition (%) of viral plaques with various lysozymes,[1]; 6 mg/ml,82 ± 4%
same,dose dependence of the action,[1]; in words,dose-dependent
same,formation of herpetic virus plaques on VERO cells,[1]; in words,significantly inhibits
CC1(C)[C@@H](O[C@H]2O[C@H](C(=O)O)[C@@H](O)[C@H](O)[C@H]2O[C@@H]2O[C@H](C(=O)O)[C@@H](O)[C@H](O)[C@H]2O)CC[C@]2(C)[C@H]3C(=O)C=C4[C@@H]5C[C@@](C)(C(=O)O)CC[C@]5(C)CC[C@@]4(C)[C@]3(C)CC[C@@H]12 [glycyrrhizic acid],Viral production after 12 hours,"[2]; contact 2 hours at 37° C., 12 hours (control 3 × 10^6)",4.2 × 10^4 PFU/ml
same,Viral production after 17 hours,"[2]; contact 2 hours at 37° C., 17 hours (control 5.4 × 10^6)",1.2 × 10^4 PFU/ml
same,inhibition at 12 hours from the infection,[2]; 12 hours,about 2 logarithms
same,inhibition at 22 hours from infection,[2]; 22 hours,~3 logarithms
same,inhibition at 22 hours from infection (%),[2]; 22 hours,99.9%
same,decrease in infection,"[2]; at 12, 17 and 22 hours",strong decrease in infection
same,"action on the synthesis of proteins, infected cells",[3],practically irrelevant
same,inhibition at 200 µg/mL,[1]; [13],0%
same,inhibition at 400 µg/mL,[1]; [13],10 ± 4%
same,inhibition at 600 µg/mL,[1]; [13],27 ± 7%
same,inhibition at 800 µg/mL,[1]; [13],50 ± 8%
same,inhibition at 1000 µg/mL,[1]; [13],75 ± 12%
same,"reduction in the incorporation of glucosamine-H^3, infected cells","[4]; 0.5 mM, infected cells",more than 10%
same,reduction in the synthesis of glyco-protein in infected cells,"[4]; 1 mM, infected cells",20%
same,synthesis of viral glycoproteins,[4]; at antiviral doses,largely inhibits
same,inhibition of viral replication,[5]; 0.5 mM,50%
same,reduction of the virus,[5]; 1 mM,80%
same,inhibition of production of the virus,[5]; 4 mM,99%
same,antiviral activity,[5],a certain antiviral activity
same,"action on the synthesis of proteins, normal cells",[6],practically irrelevant
same,"inhibition of incorporation of glucosamine-H^3, normal cells","[7]; 0.5 mM, normal cells",no inhibition
same,inhibition of the synthesis of glyco-proteins in the control,"[7]; 1 mM, control (normal) cells",no inhibition
same,synthesis of glyco-proteins in the normal cells,"[7]; 4 mM, normal cells",slightly altered
same,cell glycoproteins synthesis,[7]; only at very high doses,only at very high doses does it also inhibit
Nc1nc2c(ncn2COCCO)c(=O)[nH]1 [aciclovir],side effects of oral treatment,[8]; po,"nausea, diarrhoea, itching, headaches, renal inadequacies and nephrotoxicity"
same,side effects of topical use,[8],often causes burning and irritation of mucous membranes
same,efficacy during the first infection,[9]; administered during the first infection,fairly efficient
same,prevention of re-infection,[9]; re-infection by Herpes Simplex Virus type 1,not preventing re-infection
same,efficacy in recurring infections,[9]; recurring infections,not very effective
lactoferrin,antiviral / antiherpetic (HSV1) activity of lactoferrin,[10],antiherpetic (HSV1) activity
same,activity against human immunodeficiency virus replication,[11],potent activity
same,activity against human cytomegalovirus replication,[12],potent activity
